The text below walks through data of patent US10918645B2 (LIFEARC, priority 2016, dated 2021).

Holding throughout (assay type): biochemical
Holding throughout (details): 1 μM inhibitor concentration

The target in experiment [1] is MELK (Homo sapiens (Human), UniProt Q14680). Put plainly: MELK kinase selectivity assay. The procedure: MELK (5-20 mU diluted in 50 mM Tris pH 7.5, 0.1 mM EGTA, 0.1% b-mercaptoethanol, 1 mg/ml BSA) is assayed against a substrate peptide ([…]) in a final volume of 25.5 μl containing 50 mM Tris pH 7.5, 0.05% b-mercaptoethanol, 200 μM substrate peptide, 10 mM magnesium acetate and 0.05 mM [33P-g-ATP] (50-1000 cpm/pmole) and incubated for 30 min at room temperature. Assays are stopped by addition of 5 μl of 0.5 M (3%) orthophosphoric acid and then harvested onto P81 Unifilter plates with a wash buffer of 50 mM orthophosphoric acid.

The target in experiment [2] is MSK1 (Homo sapiens (Human), UniProt O75582). Put plainly: MSK1 kinase selectivity assay. The protocol: MSK1 (5-20 mU diluted in 20 mM MOPS pH 7.5, 1 mM EDTA, 0.01% Brij35, 0.1% b-mercaptoethanol, 1 mg/ml BSA) is assayed against a modified Crosstide peptide […] in a final volume of 25.5 μl containing 8 mM MOPS pH7.0, 0.2 mM EDTA, 30 μM substrate peptide, 10 mM magnesium acetate and 0.02 mM [33P-g-ATP](50-1000 cpm/pmole) and incubated for 30 min at room temperature Assays are stopped by addition of 5 μl of 0.5 M (3%) orthophosphoric acid and then harvested onto P81 Unifilter plates with a wash buffer of 50 mM orthophosphoric acid.

The target of experiment [3] is CK1δ (Homo sapiens (Human), UniProt P48730). The experiment is described as follows: CK1 kinase selectivity assay. The protocol: CK1 (5-20 mU diluted in 20 mM Hepes pH7.5, 0.15 M NaCl, 0.1 mM EGTA, 0.1% Triton X-100, 5 mM DTT, 50% glycerol) is assayed against CKI peptide ([…]) in a final volume of 25.5 μl containing 20 mM Hepes pH 7.5, 0.15 M NaCl, 0.1 mM EDTA, 5 mM DTT, 0.1% Triton-X 100, CKI peptide (0.5 mM), 10 mM magnesium acetate and 0.02 mM [33P-g-ATP](500-1000 cpm/pmole) and incubated for 30 min at room temperature. Assays are stopped by addition of 5 μl of 0.5 M (3%) orthophosphoric acid and then harvested onto P81 Unifilter plates with a wash buffer of 50 mM orthophosphoric acid.

Experiment [4] concerns CK2. Put plainly: CK2 kinase selectivity assay. The protocol:
CK2 (5-20 mU diluted in 20 mM Hepes pH7.5, 0.15 M NaCl, 0.1 mM EGTA, 0.1% Triton X-100, 5 mM DTT, 50% glycerol) is assayed against CKII peptide ([…]) in a final volume of 25.5 μl containing 20 mM Hepes pH 7.5, 0.15 M NaCl, 0.1 mM EDTA, 5 mM DTT, 0.1% Triton-X 100, CKII peptide (0.165 mM), 10 mM magnesium acetate and 0.005 mM [33P-g-ATP](500-1000 cpm/pmole) and incubated for 30 min at room temperature. Assays are stopped by addition of 5 μl of 0.5 M (3%) orthophosphoric acid and then harvested onto P81 Unifilter plates with a wash buffer of 50 mM orthophosphoric acid.

Experiment [5] concerns the target JNK2 (Homo sapiens (Human), UniProt P45984). Put plainly: JNK2 kinase selectivity assay. The protocol:
JNK2 1(5-20 mU diluted in 50 mM Tris (pH 7.5), 0.1 mM EGTA, 1 mg/ml BSA, 0.1% b-mercaptoethanol) is assayed against ATF2 (activating transcription factor in a final volume of 25.5 μl in 50 mM Tris pH 7.5, 0.1 mM EGTA, 0.1% b-Mercaptoethanol, ATF2 (3 μM), 10 mM magnesium acetate and 0.02 mM [33P-g-ATP] (500-1000 cpm/pmole) and incubated for 30 min at room temperature. Assays are stopped by addition of 5 μl of 0.5 M (3%) orthophosphoric acid and then harvested onto P81 Unifilter plates with a wash buffer of 50 mM orthophosphoric acid.

In experiment [6] the target is AuroraB (Homo sapiens (Human), UniProt Q96GD4). Put plainly: AuroraB kinase selectivity assay. The protocol:
Aurora B (5-20 mU diluted in 50 mM Tris pH 7.5, 0.1 mM EGTA, 0.1% b-mercaptoethanol, 1 mg/ml BSA) is assayed against a substrate peptide ([…]) in a final volume of 25.5 μl containing 50 mM Tris pH 7.5, 0.05% b-mercaptoethanol, 300 μM substrate peptide, 10 mM magnesium acetate and 0.02 mM [33P-g-ATP](50-1000 cpm/pmole) and incubated for 30 min at room temperature. Assays are stopped by addition of 5 μl of 0.5 M (3%) orthophosphoric acid and then harvested onto P81 Unifilter plates with a wash buffer of 50 mM orthophosphoric acid.

In experiment [7] the target is PKBa (Homo sapiens (Human), UniProt P31749, S473D). The experiment is described as follows: PKBa kinase selectivity assay. The protocol:
ΔPH-PKBa-S473D (5-20 mU diluted in 50 mM Tris pH 7.5, 0.1 mM EGTA, 0.1% b-mercaptoethanol, 1 mg/ml BSA) is assayed against a modified Crosstide peptide […] in a final volume of 25.5 μl containing 50 mM Tris pH 7.5, 0.05% b-mercaptoethanol, 30 μM substrate peptide, 10 mM magnesium acetate and 0.005 mM [33P-g-ATP](50-1000 cpm/pmole) and incubated for 30 min at room temperature. Assays are stopped by addition of 5 μl of 0.5 M (3%) orthophosphoric acid and then harvested onto P81 Unifilter plates with a wash buffer of 50 mM orthophosphoric acid.

Experiment [8] has as its target MLK1 (Homo sapiens (Human), UniProt P80192). The experiment is described as follows: MLK1 kinase selectivity assay. The procedure: MLK1 (5-20 mU diluted in 50 mM Tris pH 7.5, 0.1 mM EGTA, 0.1% 0-mercaptoethanol, 1 mg/ml BSA) is assayed against MBP in a final volume of 25.5 μl containing 50 mM Tris pH 7.5, 0.1 mM EGTA, 0.33 mg/ml MBP, 10 mM magnesium acetate and 0.02 mM [33P-γ-ATP] (50-1000 cpm/pmole) and incubated for 30 min at room temperature. Assays are stopped by addition of 5 μl of 0.5 M (3%) orthophosphoric acid and then harvested onto P81 Unifilter plates with a wash buffer of 50 mM orthophosphoric acid.

Chain of MSK1 (O75582 whole entry, species assumed): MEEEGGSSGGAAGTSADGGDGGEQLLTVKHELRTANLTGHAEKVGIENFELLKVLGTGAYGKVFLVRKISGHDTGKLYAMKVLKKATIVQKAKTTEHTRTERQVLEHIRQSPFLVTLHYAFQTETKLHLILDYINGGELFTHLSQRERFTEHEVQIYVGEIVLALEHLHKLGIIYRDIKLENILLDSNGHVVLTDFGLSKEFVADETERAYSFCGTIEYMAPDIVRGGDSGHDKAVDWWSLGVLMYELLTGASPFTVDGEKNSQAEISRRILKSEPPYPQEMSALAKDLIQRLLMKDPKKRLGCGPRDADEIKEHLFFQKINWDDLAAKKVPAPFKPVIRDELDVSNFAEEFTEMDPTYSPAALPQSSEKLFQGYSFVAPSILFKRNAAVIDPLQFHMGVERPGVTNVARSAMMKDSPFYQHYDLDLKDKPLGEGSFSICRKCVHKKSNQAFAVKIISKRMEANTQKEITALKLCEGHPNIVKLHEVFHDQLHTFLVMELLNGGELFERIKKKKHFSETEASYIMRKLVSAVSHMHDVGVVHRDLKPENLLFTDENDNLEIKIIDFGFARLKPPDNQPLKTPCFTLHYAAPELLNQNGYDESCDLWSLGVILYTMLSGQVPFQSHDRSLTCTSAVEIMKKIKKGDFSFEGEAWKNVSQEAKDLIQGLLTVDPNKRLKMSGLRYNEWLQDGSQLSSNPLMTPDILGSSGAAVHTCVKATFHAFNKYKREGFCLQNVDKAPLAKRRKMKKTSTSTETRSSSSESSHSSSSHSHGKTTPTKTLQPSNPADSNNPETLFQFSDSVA
Chain of AuroraB (Q96GD4 whole entry): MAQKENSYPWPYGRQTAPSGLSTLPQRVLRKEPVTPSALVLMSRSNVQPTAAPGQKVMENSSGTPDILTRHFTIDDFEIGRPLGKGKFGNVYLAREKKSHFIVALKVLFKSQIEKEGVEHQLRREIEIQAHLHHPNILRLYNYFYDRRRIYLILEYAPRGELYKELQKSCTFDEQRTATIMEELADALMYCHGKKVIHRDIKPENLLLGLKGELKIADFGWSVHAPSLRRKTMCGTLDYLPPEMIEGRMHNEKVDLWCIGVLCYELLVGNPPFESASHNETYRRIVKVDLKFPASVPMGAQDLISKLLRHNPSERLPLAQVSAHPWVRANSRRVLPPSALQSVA
Chain of PKBa (P31749 118-480 S473D): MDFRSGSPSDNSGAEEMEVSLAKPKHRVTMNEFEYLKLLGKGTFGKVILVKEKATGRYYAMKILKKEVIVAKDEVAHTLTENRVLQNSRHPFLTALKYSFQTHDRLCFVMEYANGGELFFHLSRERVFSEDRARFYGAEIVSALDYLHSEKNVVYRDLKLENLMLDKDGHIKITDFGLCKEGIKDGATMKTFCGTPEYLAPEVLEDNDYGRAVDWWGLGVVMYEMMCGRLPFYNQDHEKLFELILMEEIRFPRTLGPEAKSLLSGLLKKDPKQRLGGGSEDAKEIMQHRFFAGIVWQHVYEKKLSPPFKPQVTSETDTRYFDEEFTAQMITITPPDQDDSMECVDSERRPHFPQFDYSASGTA
Chain of MLK1 (P80192 whole entry, species assumed): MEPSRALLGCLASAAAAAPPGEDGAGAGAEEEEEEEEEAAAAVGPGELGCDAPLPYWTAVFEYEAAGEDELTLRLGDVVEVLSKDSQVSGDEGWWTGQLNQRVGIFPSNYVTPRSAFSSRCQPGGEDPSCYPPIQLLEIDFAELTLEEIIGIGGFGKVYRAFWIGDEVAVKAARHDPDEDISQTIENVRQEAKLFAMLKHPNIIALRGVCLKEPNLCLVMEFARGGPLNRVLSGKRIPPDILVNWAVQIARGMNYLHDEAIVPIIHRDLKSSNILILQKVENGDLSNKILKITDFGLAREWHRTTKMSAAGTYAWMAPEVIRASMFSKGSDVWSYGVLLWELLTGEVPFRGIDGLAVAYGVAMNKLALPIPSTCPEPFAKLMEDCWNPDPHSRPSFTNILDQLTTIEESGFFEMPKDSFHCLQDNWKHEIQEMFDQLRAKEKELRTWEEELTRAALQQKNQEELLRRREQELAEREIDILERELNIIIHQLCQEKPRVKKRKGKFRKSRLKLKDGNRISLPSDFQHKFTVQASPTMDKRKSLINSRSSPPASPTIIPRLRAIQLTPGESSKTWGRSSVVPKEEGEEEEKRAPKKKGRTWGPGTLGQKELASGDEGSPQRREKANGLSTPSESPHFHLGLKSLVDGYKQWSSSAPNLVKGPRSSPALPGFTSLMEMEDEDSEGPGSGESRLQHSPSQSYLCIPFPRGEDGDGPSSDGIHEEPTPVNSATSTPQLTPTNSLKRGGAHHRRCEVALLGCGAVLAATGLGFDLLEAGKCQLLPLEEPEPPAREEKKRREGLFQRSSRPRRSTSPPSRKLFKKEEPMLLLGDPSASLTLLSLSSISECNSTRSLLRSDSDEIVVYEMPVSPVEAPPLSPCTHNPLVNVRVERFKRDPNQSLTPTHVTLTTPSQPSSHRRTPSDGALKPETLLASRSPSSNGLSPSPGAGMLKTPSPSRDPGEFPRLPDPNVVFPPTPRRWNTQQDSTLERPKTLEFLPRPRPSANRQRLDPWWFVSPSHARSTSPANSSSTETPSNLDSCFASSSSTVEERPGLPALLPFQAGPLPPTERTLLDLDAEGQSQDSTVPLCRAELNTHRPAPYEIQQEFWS
Chain of MELK (Q14680 whole entry, species assumed): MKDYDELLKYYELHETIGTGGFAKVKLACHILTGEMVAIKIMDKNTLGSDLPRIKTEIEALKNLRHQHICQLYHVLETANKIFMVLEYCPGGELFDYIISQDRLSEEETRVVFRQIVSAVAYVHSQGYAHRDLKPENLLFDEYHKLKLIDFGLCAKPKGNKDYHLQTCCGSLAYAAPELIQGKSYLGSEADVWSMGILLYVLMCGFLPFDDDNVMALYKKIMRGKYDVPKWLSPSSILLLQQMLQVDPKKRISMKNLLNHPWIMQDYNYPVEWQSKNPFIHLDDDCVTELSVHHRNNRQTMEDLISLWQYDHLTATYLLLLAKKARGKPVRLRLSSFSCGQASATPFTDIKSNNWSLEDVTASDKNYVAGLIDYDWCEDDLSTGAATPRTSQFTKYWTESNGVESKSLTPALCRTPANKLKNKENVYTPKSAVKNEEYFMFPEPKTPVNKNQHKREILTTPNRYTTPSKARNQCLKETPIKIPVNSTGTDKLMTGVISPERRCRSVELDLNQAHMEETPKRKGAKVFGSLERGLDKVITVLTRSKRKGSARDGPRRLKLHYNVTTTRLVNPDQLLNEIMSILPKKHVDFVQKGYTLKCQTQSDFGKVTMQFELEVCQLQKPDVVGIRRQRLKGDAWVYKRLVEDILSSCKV
Chain of JNK2 (P45984 whole entry, species assumed): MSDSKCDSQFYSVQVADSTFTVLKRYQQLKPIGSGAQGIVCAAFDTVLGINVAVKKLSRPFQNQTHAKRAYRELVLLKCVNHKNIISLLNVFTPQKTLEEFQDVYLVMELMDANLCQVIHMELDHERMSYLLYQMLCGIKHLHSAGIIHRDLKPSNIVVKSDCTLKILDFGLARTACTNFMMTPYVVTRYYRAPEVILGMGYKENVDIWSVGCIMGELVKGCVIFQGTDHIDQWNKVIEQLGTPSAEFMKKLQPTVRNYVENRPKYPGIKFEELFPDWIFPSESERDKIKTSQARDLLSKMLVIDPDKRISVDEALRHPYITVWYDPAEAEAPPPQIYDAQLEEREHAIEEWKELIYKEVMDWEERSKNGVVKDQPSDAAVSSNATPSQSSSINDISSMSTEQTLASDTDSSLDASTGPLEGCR
Chain of CK1δ (P48730 whole entry): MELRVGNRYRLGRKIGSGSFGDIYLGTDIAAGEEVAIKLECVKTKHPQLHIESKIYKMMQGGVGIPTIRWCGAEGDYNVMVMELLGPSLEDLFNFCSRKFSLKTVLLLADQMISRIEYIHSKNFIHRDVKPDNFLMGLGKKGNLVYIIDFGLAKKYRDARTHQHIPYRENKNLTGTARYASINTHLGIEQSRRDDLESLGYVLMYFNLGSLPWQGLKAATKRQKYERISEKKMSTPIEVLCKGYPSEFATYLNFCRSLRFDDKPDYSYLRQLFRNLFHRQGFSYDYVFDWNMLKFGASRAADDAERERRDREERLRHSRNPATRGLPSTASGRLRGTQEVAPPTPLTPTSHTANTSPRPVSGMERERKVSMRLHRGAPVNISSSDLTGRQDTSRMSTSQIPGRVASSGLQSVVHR

Consider `c1cc2[nH]nc3c2c(n1)N(C1CCC1)CCC3` [Example 22, 6-cyclobutyl-6,7,8,9-tetrahydro-2H-1,2,5,6-tetraazabenzo[cd]azulene], for which the “percentage inhibition of MELK” value in experiment [1] worked out at 10 percentage. In addition, the “percentage inhibition of MSK1” value in experiment [2] came out at 2 percentage. For the same compound, in experiment [3], the “percentage inhibition of CK1δ” value is on record as 0 percentage. Besides, in experiment [4], the “percentage inhibition of CK2” value is 0 percentage. The “percentage inhibition of JNK2” value in experiment [5] is 1 percentage. In addition, the “percentage inhibition of AuroraB” value in experiment [6] came out at 23 percentage. Besides, in experiment [7], the “percentage inhibition of PKBa” value is 3 percentage. Further, the “percentage inhibition of MLK1” value in experiment [8] came to 0 percentage.
For the compound `c1cc2[nH]nc3c2c(n1)N(C1CCCC1)CCC3` [Example 23, 6-cyclopentyl-6,7,8,9-tetrahydro-2H-1,2,5,6-tetraazabenzo[cd]azulene], in experiment [1], the “percentage inhibition of MELK” value is on record as 1 percentage. In experiment [2], the “percentage inhibition of MSK1” value is given as 2 percentage. For the same compound, the “percentage inhibition of CK1δ” value in experiment [3] was determined as 0 percentage. For the same compound, the “percentage inhibition of JNK2” value in experiment [5] was found to be 0 percentage. The “percentage inhibition of AuroraB” value in experiment [6] came to 1 percentage. For the same compound, the “percentage inhibition of PKBa” value in experiment [7] was 0 percentage. In experiment [8], the “percentage inhibition of MLK1” value is recorded as 0 percentage.
For the compound `c1cc2[nH]nc3c2c(n1)N(C1CCOCC1)CCC3` [Example 29, 6-(tetrahydro-2H-pyran-4-yl)-6,7,8,9-tetrahydro-2H-1,2,5,6-tetraazabenzo[cd]azulene], the “percentage inhibition of MELK” value in experiment [1] was 24 percentage. The “percentage inhibition of MSK1” value in experiment [2] stood at 7 percentage. In experiment [3], the “percentage inhibition of CK1δ” value amounted to 11 percentage. Also, in experiment [4], the “percentage inhibition of CK2” value came to 0 percentage. In addition, the “percentage inhibition of JNK2” value in experiment [5] was found to be 0 percentage. For the same compound, the “percentage inhibition of AuroraB” value in experiment [6] was 29 percentage. For the same compound, the “percentage inhibition of PKBa” value in experiment [7] was found to be 0 percentage. In addition, the “percentage inhibition of MLK1” value in experiment [8] was 0 percentage.
`CN1CCC(N2Cc3ccccc3-c3n[nH]c4ccnc2c34)CC1` [Example 55]: the “percentage inhibition of MELK” value in experiment [1] was 78 percentage. In addition, the “percentage inhibition of MSK1” value in experiment [2] is 34 percentage. Also, in experiment [3], the “percentage inhibition of CK1δ” value is reported as 12 percentage. In experiment [4], the “percentage inhibition of CK2” value was determined as 11 percentage. In addition, the “percentage inhibition of JNK2” value in experiment [5] came out at 41 percentage. Also, in experiment [6], the “percentage inhibition of AuroraB” value is given as 38 percentage. Further, in experiment [7], the “percentage inhibition of PKBa” value is given as 1 percentage. For the same compound, the “percentage inhibition of MLK1” value in experiment [8] came out at 24 percentage.
Regarding `CC(C)n1ncc2c1CN(C1CCN(C)CC1)c1nccc3[nH]nc-2c13` [Example 68], the “percentage inhibition of MELK” value in experiment [1] turned out to be 72 percentage. Besides, the “percentage inhibition of MSK1” value in experiment [2] stood at 30 percentage. For the same compound, the “percentage inhibition of CK1δ” value in experiment [3] is recorded as 3 percentage. Besides, the “percentage inhibition of CK2” value in experiment [4] is on record as 4 percentage. The “percentage inhibition of JNK2” value in experiment [5] is recorded as 37 percentage. The “percentage inhibition of AuroraB” value in experiment [6] came to 19 percentage. Moreover, the “percentage inhibition of PKBa” value in experiment [7] came to 0 percentage. In addition, the “percentage inhibition of MLK1” value in experiment [8] is given as 12 percentage.
